Laboratory results from ChEMBL document CHEMBL1201862, “PubChem BioAssay data set” (2004).
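Assay format: 96-well plates, 48-hour exposure. The concentration for 50% growth inhibition is given as GI50.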 The source made the active and inactive calls. No stated cut-off is given here; in the data, active = GI50 up to about 1.1 µM and inactive = higher.

Assays:
Test in all cases: NCI anticancer screen, dose series, 48 h
[1] = tested on: A498
[2] = tested on: ACHN
[3] = tested on: EKVX
[4] = tested on: HCC 2998
[5] = tested on: HCT-116
[6] = tested on: HOP-18
[7] = tested on: IGROV-1
[8] = tested on: MOLT-4
[9] = tested on: NCI-H226
[10] = tested on: OVCAR-3
[11] = tested on: SF-268
[12] = tested on: SK-MEL-5
[13] = tested on: SNB-75
[14] = tested on: UACC-257
[15] = tested on: UO-31
[16] = tested on: MCF7
[17] = tested on: MDA-MB-435
[18] = tested on: NCI/ADR-RES
[19] = tested on: PC-3
[20] = tested on: BT-549

Compound | GI50 [1] | GI50 [2] | GI50 [3] | GI50 [4] | GI50 [5] | GI50 [6] | GI50 [7] | GI50 [8] | GI50 [9] | GI50 [10] | GI50 [11] | GI50 [12] | GI50 [13] | GI50 [14] | GI50 [15] | GI50 [16] | GI50 [17] | GI50 [18] | GI50 [19] | GI50 [20]
O=C(c1ccccc1)[C@H]1Nc2cnccc2C2c3ccccc3CC21 (some centres not stated) | 25.9 µM (inactive) | 13.8 µM (inactive) | 19.9 µM (inactive) | 39.4 µM (inactive) | 3.81 µM (inactive) | 5.6 µM (inactive) | 24 µM (inactive) | 2.99 µM (inactive) | 4.26 µM (inactive) | 7.69 µM (inactive) | 7.35 µM (inactive) | 3.31 µM (inactive) | 16.2 µM (inactive) | 13.2 µM (inactive) | 7.21 µM (inactive) |  |  |  |  | 
CC(C)S(=O)(=O)ON1C(=O)c2ccc(N(C)C)cc2C1=O | > 43.7 µM (inactive) | 15.6 µM (inactive) | 22.3 µM (inactive) | 13.3 µM (inactive) | 14.8 µM (inactive) | 13.5 µM (inactive) | 20.8 µM (inactive) | 2.12 µM (inactive) | 25.2 µM (inactive) | 8.91 µM (inactive) | 24 µM (inactive) | 3.96 µM (inactive) | 19.6 µM (inactive) | 20.1 µM (inactive) | 18.2 µM (inactive) | 5.93 µM (inactive) | 2.04 µM (inactive) | 5.4 µM (inactive) | > 10 µM (inactive) | 
Cc1c(CNc2ccc(Cl)c(C(=O)NC(CC(=O)O)C(=O)O)c2)ccc2nc(N)nc(N)c12 (configuration not stated) | 1.52 µM (inactive) | 0.0262 µM (active) | 8.15 µM (inactive) | 0.256 µM (active) | < 0.01 µM (active) | > 54.8 µM (inactive) | 0.0715 µM (active) |  | > 100 µM (inactive) | 6.46 µM (inactive) | 0.209 µM (active) | 0.148 µM (active) | > 32.3 µM (inactive) | 5.55 µM (inactive) | 0.665 µM (active) | 0.499 µM (active) | < 0.01 µM (active) |  | 178 µM (inactive) | 33.3 µM (inactive)
C/C(=N\N(C)C)c1sc(-n2nc(-c3ccccc3)cc2-c2ccccc2)nc1C | > 100 µM (inactive) | > 100 µM (inactive) | 8.22 µM (inactive) | > 100 µM (inactive) | > 100 µM (inactive) | > 100 µM (inactive) | > 100 µM (inactive) | 84.3 µM (inactive) | > 100 µM (inactive) | 47.9 µM (inactive) | > 100 µM (inactive) | > 100 µM (inactive) | 15.2 µM (inactive) | > 100 µM (inactive) | > 100 µM (inactive) |  |  |  |  | 
CC1CCC2c3c([nH]c4ccccc34)C3C(=O)N(c4ccccc4)C(=O)C3C2C1 (configuration not stated) | 43.8 µM (inactive) | 21.8 µM (inactive) | > 250 µM (inactive) | 106 µM (inactive) | 80.2 µM (inactive) | 18.9 µM (inactive) | 19.7 µM (inactive) | 25.4 µM (inactive) | 32.1 µM (inactive) | 49.8 µM (inactive) | 22.9 µM (inactive) | > 100 µM (inactive) | 2.65 µM (inactive) | > 250 µM (inactive) | 58.3 µM (inactive) |  |  |  |  | 
CSc1cccc(-n2c3nc(=O)n(C)c(=O)c-3nc3ccccc32)c1 | 12.6 µM (inactive) | 0.735 µM (active) | 19.3 µM (inactive) | 4.03 µM (inactive) | 7.29 µM (inactive) | 13.2 µM (inactive) | 13.6 µM (inactive) | 12 µM (inactive) | 11.8 µM (inactive) | 2.26 µM (inactive) | 16.6 µM (inactive) | 1.25 µM (inactive) | 14.5 µM (inactive) | 4.94 µM (inactive) | 17.4 µM (inactive) |  |  |  |  | 
O=C1CCC(=O)c2cc(Br)ccc2N1 | > 100 µM (inactive) | > 100 µM (inactive) | > 63.2 µM (inactive) | > 100 µM (inactive) | > 40.8 µM (inactive) | > 100 µM (inactive) | > 100 µM (inactive) | > 100 µM (inactive) | > 100 µM (inactive) | > 100 µM (inactive) | > 100 µM (inactive) | > 100 µM (inactive) | > 100 µM (inactive) | > 100 µM (inactive) | > 100 µM (inactive) |  |  |  |  | 
